Reference: patent US20240246942A1, “KINASE INHIBITORS FOR THE TREATMENT OF NEURODEGENERATIVE DISEASES” (priority 2020, published 2024)

Tests used:
Test in all cases: biochemical
[1] = target: T1, panel of 374 wild-type kinases (Homo sapiens, UniProt Q99683); conditions: read-out: % Enzyme Activity (relative to DMSO controls), ASK1/MAP3K5
T1 construct: purchased Reaction Biology Corporation
T1 sequence (Q99683 1-1374): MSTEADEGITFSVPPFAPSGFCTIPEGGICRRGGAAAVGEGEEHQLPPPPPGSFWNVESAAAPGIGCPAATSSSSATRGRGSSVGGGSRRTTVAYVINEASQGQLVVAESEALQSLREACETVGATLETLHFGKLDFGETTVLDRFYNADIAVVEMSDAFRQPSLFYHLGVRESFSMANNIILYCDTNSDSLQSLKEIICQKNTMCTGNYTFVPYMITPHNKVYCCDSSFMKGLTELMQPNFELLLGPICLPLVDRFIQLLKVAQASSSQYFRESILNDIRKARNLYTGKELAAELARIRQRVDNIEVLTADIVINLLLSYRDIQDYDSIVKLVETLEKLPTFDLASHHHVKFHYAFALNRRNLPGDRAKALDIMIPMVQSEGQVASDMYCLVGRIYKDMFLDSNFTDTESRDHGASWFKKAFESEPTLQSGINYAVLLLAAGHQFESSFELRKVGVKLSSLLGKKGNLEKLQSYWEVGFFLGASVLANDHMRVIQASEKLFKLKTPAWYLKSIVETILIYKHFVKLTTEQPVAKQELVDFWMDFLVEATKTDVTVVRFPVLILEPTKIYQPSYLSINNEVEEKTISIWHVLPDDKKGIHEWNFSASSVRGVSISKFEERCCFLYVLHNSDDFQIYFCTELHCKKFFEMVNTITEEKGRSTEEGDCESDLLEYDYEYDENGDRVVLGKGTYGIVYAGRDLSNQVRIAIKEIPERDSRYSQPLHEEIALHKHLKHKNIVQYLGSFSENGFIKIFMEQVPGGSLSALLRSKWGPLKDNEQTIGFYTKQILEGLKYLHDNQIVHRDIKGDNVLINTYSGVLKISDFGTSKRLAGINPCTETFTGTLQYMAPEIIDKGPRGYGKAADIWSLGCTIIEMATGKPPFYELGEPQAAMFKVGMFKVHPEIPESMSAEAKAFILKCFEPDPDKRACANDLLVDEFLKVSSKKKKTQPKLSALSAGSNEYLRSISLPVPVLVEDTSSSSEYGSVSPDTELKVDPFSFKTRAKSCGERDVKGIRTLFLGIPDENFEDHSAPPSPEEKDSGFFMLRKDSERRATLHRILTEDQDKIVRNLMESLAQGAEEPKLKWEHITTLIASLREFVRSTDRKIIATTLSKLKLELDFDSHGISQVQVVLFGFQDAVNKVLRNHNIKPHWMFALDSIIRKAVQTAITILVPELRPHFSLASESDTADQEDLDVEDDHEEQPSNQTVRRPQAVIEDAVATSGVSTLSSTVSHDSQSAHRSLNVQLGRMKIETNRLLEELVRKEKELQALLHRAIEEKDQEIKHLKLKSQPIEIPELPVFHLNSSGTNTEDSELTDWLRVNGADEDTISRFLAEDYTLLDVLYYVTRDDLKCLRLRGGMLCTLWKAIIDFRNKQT

[2] = target: T2, panel of 374 wild-type kinases (Homo sapiens, UniProt P52333); conditions: read-out: % Enzyme Activity (relative to DMSO controls), JAK3
T2 construct: purchased Reaction Biology Corporation
T2 sequence (P52333 1-1124): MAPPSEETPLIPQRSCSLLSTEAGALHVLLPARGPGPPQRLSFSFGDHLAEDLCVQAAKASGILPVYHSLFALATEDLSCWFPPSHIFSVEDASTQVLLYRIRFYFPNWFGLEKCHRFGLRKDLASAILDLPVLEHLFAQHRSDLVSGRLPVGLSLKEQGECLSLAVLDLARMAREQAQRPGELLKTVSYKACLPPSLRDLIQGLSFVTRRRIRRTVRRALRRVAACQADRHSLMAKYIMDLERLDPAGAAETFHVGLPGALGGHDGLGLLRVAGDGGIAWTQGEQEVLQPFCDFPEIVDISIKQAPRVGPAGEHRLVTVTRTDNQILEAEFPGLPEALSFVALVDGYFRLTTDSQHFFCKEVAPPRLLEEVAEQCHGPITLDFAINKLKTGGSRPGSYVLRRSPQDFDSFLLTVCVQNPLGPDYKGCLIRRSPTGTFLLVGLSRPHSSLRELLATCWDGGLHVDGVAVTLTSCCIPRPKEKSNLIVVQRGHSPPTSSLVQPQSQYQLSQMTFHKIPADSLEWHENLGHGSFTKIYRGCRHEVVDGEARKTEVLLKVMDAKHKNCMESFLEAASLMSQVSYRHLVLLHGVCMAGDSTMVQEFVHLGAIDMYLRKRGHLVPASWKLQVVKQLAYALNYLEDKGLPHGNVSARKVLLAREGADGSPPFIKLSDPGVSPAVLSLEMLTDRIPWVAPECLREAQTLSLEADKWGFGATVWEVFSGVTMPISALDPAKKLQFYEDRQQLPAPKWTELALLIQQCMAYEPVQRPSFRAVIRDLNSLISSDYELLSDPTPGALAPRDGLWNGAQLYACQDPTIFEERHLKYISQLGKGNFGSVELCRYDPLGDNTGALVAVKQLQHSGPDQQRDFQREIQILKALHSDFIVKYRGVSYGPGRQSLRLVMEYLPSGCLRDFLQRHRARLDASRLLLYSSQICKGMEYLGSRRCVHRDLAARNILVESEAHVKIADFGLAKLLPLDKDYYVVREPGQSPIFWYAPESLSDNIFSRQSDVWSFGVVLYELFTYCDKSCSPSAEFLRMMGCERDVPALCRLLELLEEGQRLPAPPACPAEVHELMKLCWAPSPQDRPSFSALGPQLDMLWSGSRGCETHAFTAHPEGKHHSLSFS

[3] = target: T3, panel of 374 wild-type kinases (Homo sapiens, UniProt P10721); conditions: read-out: % Enzyme Activity (relative to DMSO controls), c-Kit
T3 construct: purchased Reaction Biology Corporation
T3 sequence (P10721 26-976): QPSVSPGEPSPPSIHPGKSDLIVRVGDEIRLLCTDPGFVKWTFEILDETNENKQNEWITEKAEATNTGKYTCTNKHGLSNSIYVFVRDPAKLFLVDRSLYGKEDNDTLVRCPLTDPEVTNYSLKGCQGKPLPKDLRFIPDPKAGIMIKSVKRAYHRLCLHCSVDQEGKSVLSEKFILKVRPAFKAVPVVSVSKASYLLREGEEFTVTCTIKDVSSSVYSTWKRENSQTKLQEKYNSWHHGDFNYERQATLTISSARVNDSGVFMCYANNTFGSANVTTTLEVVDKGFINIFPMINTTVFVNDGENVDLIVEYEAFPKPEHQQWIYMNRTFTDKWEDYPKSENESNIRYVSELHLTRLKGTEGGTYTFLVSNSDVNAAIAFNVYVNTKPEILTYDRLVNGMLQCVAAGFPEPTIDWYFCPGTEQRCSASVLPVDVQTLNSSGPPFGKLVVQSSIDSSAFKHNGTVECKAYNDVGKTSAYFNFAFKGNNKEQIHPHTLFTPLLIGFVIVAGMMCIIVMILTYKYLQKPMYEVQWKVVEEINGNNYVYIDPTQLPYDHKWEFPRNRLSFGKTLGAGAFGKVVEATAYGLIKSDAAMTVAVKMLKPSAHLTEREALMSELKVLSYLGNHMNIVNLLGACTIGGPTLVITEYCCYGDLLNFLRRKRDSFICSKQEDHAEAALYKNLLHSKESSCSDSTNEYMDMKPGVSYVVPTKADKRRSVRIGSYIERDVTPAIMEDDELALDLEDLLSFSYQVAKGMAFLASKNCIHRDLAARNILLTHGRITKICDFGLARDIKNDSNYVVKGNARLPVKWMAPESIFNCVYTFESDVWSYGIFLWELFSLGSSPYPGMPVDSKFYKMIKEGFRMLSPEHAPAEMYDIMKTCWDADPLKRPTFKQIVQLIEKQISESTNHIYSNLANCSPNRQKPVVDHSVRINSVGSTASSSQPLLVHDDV

[4] = target: T4, panel of 374 wild-type kinases (Homo sapiens, UniProt Q96RR4); conditions: read-out: % Enzyme Activity (relative to DMSO controls), CAMKK2
T4 construct: purchased Reaction Biology Corporation
T4 sequence (Q96RR4 whole entry): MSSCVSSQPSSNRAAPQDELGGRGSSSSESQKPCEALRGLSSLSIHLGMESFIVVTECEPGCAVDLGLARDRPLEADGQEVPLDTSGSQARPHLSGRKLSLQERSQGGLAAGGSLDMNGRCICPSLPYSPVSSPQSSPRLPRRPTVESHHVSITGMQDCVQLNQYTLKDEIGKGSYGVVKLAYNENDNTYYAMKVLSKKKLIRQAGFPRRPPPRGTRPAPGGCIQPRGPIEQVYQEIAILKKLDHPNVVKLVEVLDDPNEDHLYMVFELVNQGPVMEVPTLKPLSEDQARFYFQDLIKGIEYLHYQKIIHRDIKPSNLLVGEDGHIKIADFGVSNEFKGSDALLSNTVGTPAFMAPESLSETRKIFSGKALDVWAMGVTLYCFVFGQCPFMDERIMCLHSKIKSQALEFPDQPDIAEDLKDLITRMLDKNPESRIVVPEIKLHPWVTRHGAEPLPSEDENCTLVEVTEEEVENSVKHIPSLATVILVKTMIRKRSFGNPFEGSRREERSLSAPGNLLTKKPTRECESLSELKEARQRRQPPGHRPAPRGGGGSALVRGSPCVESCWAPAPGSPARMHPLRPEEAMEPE

[5] = target: T5, panel of 374 wild-type kinases (Homo sapiens, UniProt Q6P5Z2); conditions: read-out: % Enzyme Activity (relative to DMSO controls), kinase PKN3/PRK3
T5 construct: purchased Reaction Biology Corporation
T5 sequence (Q6P5Z2 whole entry): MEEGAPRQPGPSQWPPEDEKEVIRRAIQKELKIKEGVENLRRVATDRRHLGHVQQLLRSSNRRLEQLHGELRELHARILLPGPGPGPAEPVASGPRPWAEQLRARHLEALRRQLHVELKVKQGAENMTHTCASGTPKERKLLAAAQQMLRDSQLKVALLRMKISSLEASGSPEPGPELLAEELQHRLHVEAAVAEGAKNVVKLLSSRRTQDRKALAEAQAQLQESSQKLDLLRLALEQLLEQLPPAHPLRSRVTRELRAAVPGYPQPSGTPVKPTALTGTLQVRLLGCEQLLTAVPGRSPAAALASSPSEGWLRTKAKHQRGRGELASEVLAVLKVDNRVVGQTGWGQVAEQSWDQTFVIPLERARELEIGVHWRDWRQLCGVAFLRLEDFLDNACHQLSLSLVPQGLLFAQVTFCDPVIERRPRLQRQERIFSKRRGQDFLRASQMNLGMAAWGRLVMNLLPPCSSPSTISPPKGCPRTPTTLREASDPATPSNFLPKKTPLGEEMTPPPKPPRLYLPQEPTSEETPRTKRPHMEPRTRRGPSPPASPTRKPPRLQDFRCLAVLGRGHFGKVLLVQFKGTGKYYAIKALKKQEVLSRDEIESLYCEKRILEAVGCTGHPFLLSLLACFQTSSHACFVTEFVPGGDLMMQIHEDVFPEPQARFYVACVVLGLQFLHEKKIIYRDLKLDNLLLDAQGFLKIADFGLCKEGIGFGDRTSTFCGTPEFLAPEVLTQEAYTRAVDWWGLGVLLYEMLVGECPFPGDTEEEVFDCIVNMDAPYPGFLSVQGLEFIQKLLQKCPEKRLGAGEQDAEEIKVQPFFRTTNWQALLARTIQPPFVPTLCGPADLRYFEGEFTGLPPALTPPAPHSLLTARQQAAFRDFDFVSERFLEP

[6] = target: T6, panel of 374 wild-type kinases (Homo sapiens, UniProt Q5TCX8); conditions: read-out: % Enzyme Activity (relative to DMSO controls), MLK4
T6 construct: purchased Reaction Biology Corporation
T6 sequence (Q5TCX8 whole entry): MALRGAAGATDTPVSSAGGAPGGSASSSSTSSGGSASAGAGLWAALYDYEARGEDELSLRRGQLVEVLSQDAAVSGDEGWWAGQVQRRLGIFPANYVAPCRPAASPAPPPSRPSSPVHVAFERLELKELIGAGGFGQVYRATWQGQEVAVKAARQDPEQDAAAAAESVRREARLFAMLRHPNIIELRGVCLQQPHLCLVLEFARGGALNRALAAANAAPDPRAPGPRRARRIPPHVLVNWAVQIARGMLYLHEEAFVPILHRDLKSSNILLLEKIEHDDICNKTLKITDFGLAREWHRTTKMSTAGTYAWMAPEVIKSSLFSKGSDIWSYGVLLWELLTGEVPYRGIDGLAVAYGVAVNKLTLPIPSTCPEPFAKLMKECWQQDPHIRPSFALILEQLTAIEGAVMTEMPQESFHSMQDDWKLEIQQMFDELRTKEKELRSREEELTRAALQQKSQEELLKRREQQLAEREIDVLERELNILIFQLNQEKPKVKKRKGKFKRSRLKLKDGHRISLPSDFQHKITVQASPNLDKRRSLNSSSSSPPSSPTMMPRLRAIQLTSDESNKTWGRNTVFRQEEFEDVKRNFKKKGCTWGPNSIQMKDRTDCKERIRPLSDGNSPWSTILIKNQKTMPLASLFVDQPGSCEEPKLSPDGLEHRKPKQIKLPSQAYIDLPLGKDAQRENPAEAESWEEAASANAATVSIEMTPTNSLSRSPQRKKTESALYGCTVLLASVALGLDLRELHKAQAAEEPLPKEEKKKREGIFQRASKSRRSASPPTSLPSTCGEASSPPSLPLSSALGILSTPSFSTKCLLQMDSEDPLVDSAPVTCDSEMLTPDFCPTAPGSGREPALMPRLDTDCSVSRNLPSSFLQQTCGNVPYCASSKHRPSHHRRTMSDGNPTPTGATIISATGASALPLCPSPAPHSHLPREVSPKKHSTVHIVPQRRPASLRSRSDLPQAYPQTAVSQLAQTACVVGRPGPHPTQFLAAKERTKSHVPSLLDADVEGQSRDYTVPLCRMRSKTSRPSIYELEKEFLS

[7] = target: T7, panel of 374 wild-type kinases (Homo sapiens, UniProt Q96NX5); conditions: read-out: % Enzyme Activity (relative to DMSO controls), CAMK1g
T7 construct: purchased Reaction Biology Corporation
T7 sequence (Q96NX5 whole entry): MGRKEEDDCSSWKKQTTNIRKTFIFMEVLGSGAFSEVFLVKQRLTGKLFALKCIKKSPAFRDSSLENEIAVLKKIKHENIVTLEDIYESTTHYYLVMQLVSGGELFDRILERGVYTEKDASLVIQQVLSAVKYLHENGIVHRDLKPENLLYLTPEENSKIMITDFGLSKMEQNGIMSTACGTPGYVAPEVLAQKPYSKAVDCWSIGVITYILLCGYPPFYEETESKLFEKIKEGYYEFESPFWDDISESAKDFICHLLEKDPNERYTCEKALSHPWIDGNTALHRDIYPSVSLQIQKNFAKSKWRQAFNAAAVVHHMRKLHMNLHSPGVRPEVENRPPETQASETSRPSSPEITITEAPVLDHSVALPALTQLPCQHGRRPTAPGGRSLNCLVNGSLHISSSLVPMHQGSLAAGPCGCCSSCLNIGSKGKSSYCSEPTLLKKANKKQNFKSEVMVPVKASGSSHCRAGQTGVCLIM

Compound	remaining activity at 5 µM [1] [%]	remaining activity at 5 µM [2] [%]	remaining activity at 5 µM [3] [%]	remaining activity at 5 µM [4] [%]	remaining activity at 5 µM [5] [%]	remaining activity at 5 µM [6] [%]	remaining activity at 5 µM [7] [%]	remaining activity at 10 µM ([1]; 10 uM) [%]	remaining activity at 10 µM ([2]; 10 uM) [%]	remaining activity at 10 µM ([3]; 10 uM) [%]	remaining activity at 10 µM ([4]; 10 uM) [%]	remaining activity at 10 µM ([5]; 10 uM) [%]	remaining activity at 10 µM ([6]; 10 uM) [%]	remaining activity at 10 µM ([7]; 10 uM) [%]
O=C(Nc1cnn(-c2csc(C(=O)NC3COC3)c2)c1)Nc1c(F)cccc1Cl [Compound 25, 4-(4-(3-(2-chloro-6-fluorophenyl)ureido)-1H-pyrazol-1-yl)-N-(oxetan-3-yl)thiophene-2-carboxamide]	91.1	98.7	94	81	76.2	94.3	94							
O=C(Nc1cnn(-c2csc(C(=O)NC3COC3)c2)c1)Nc1ccccc1Cl [Compound 17, 4-(4-(3-(2-chlorophenyl)ureido)-1H-pyrazol-1-yl)-N-(oxetan-3-yl)thiophene-2-carboxamide]	91.2	102	89.2	91.1	92.5	93.2	94.2							
Cc1sc(C(=O)NC2COC2)cc1-n1cc(NC(=O)Nc2c(F)cccc2Cl)cn1 [Compound 27, 4-(4-(3-(2-chloro-6-fluorophenyl)ureido)-1H-pyrazol-1-yl)-5-methyl-N-(oxetan-3-yl)thiophene-2-carboxamide]								94	96.7	64.4	111	98.6	85.2	93.1
